Measurements from ChEMBL document CHEMBL1156860, “Synthesis and biological activities of novel indole derivatives as potent and selective PPARgamma modulators” (Bioorg Med Chem Lett, 2010).

How the values were obtained:
[1] = target: T1, Peroxisome proliferator-activated receptor alpha (Homo sapiens, UniProt Q07869); assay: Agonist activity at human PPARalpha expressed in african green monkey CV1 cells by Gal4 transactivation assay; assay type: functional, cell-based, CV-1
T1 sequence (Q07869 whole entry): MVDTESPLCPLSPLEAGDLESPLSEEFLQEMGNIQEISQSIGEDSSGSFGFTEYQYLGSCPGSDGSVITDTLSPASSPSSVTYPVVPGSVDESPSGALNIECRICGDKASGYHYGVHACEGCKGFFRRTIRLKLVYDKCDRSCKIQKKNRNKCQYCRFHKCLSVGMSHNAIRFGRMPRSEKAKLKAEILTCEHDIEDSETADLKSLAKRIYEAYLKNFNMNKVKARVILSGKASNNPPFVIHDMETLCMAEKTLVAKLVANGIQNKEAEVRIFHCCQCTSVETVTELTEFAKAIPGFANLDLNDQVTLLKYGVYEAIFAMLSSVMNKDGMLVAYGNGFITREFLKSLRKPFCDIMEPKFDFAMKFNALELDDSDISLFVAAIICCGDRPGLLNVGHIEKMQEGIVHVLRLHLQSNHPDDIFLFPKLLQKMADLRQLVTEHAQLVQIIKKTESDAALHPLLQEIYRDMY

[2] = target: T2, Peroxisome proliferator-activated receptor gamma (Mus musculus, UniProt P37238); assay: Agonist activity at mouse PPARgamma expressed in african green monkey CV1 cells by Gal4 transactivation assay; assay type: functional, cell-based, CV-1
T2 sequence (P37238 whole entry): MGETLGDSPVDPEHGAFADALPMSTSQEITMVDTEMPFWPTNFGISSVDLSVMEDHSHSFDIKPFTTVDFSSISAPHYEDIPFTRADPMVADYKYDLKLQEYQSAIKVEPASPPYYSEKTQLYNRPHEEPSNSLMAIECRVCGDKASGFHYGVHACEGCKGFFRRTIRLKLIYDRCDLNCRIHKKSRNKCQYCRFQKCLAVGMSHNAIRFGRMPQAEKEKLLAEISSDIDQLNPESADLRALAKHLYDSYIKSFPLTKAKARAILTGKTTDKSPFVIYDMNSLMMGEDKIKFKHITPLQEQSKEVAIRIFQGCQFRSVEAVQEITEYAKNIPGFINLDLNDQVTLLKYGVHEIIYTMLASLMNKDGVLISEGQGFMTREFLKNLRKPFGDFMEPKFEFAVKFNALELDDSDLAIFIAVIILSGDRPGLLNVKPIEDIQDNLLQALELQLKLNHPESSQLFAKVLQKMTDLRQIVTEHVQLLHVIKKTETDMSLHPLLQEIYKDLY

[3] = target: T3, Peroxisome proliferator-activated receptor gamma (Homo sapiens, UniProt P37231)
T3 sequence (P37231 whole entry): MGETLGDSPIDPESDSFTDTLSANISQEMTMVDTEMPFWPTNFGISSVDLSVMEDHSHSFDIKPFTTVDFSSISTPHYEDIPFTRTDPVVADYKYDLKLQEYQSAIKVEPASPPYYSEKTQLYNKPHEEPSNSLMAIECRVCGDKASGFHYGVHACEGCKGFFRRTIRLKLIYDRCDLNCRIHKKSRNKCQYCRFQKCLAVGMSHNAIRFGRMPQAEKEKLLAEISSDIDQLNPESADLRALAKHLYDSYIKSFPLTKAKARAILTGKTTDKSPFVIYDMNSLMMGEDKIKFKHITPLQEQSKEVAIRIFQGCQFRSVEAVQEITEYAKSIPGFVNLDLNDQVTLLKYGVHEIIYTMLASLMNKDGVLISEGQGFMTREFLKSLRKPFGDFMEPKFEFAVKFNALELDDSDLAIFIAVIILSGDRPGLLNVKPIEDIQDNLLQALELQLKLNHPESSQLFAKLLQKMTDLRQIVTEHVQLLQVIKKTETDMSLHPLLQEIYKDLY
Description: Agonist activity at human PPARgamma expressed in african green monkey CV1 cells by Gal4 transactivation assay

[4] = target: T4, Peroxisome proliferator-activated receptor delta (Mus musculus, UniProt P35396); assay: Agonist activity at mouse PPARdelta expressed in african green monkey CV1 cells by Gal4 transactivation assay; assay type: functional, cell-based, CV-1
T4 sequence (P35396 whole entry): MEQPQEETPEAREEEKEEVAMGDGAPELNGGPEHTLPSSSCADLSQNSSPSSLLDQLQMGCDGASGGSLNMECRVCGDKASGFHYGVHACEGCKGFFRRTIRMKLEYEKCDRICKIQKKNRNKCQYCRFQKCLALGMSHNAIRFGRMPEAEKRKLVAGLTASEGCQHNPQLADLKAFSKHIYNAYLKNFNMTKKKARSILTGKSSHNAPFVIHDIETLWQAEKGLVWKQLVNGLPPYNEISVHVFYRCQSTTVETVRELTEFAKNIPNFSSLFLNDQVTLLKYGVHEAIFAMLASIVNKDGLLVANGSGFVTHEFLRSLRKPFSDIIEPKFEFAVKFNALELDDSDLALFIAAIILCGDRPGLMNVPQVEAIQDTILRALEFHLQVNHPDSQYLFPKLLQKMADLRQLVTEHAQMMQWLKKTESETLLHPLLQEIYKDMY

[5] = target: T5, Peroxisome proliferator-activated receptor alpha (Mus musculus, UniProt P23204); assay: Agonist activity at mouse PPARalpha expressed in african green monkey CV1 cells by Gal4 transactivation assay; assay type: functional, cell-based, CV-1
T5 sequence (P23204 whole entry): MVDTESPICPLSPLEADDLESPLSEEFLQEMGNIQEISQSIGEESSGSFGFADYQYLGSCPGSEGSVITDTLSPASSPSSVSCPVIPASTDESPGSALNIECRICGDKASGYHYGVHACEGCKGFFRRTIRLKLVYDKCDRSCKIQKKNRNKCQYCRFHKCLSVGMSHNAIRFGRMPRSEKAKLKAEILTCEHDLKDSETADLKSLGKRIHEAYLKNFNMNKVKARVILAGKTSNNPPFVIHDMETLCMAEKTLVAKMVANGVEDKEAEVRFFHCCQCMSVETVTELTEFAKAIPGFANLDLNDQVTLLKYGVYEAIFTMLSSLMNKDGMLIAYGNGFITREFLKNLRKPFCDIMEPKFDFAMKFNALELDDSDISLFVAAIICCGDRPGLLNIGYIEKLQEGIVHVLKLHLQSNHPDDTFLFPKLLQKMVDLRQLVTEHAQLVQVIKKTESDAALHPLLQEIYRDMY

[6] = target: T6, Peroxisome proliferator-activated receptor delta (Homo sapiens, UniProt Q03181); assay: Agonist activity at human PPARdelta expressed in african green monkey CV1 cells by Gal4 transactivation assay; assay type: functional, cell-based, CV-1
T6 sequence (Q03181 whole entry): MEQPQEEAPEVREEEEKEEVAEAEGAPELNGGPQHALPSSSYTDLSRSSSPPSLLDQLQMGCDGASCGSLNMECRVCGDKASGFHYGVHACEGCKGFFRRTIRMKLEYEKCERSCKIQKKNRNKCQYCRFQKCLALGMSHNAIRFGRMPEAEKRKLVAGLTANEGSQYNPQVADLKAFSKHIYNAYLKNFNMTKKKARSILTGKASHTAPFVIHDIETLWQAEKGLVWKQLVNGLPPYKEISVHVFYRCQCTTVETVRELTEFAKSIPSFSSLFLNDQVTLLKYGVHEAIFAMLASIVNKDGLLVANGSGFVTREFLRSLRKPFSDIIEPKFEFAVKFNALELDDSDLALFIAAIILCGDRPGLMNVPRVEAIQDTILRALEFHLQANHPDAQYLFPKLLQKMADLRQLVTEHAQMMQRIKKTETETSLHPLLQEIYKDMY

[7] = target: T1, Peroxisome proliferator-activated receptor alpha; assay: Displacement of radiolabeled GW-2433 from human PPARalpha ligand binding domain expressed in Escherichia coli
[8] = target: T6, Peroxisome proliferator-activated receptor delta; assay: Displacement of radiolabeled GW-2433 from human PPARdelta ligand binding domain expressed in Escherichia coli
[9] = AUC in CD rat at 5 mg/kg, po; assay type: ADME, organism-based; design: dose 5 mg/kg, route oral; conditions: plasma
[10] = Half life in CD rat at 1 mg/kg, iv and 5 mg/kg, po; assay type: ADME, organism-based; conditions: in vivo
[11] = Clearance in CD rat at 1 mg/kg, iv and 5 mg/kg, po; assay type: ADME, organism-based; conditions: in vivo
[12] = AUC in Zucker fa/fa rat at 5 mg/kg, po; assay type: ADME, organism-based; design: dose 5 mg/kg, route oral; conditions: plasma
[13] = tested on: Rattus norvegicus; assay: Antidiabetic activity in Zucker fa/fa rat assessed as reduction in hematocrit level in at 40 mg/kg, po twice a day for 5 days; assay type: functional; design: scale not given: the % may be the effect or the level left
[14] = tested on: Rattus norvegicus; assay: Antidiabetic activity in Zucker fa/fa rat assessed as reduction in plasma glucose level in at 40 mg/kg, po twice a day for 5 days; assay type: functional; design: scale not given: the % may be the effect or the level left
[15] = Cmax in CD rat at 1 mg/kg, iv and 5 mg/kg, po; assay type: ADME, organism-based; conditions: in vivo
[16] = tested on: Rattus norvegicus; assay: Antidiabetic activity in Zucker fa/fa rat assessed as reduction in triglyceride level in at 40 mg/kg, po twice a day for 5 days; assay type: functional; design: scale not given: the % may be the effect or the level left
[17] = Oral bioavailability in CD rat at 1 mg/kg, iv; assay type: ADME, organism-based; conditions: in vivo
[18] = target: T7, Peroxisome proliferator-activated receptor alpha (Mus musculus) (UniProt P23204); assay: Agonist activity at mouse PPARalpha expressed in african green monkey CV1 cells by Gal4 transactivation assay relative to SW516; assay type: functional, cell-based; conditions: CV-1
T7 sequence (whole entry): T5 sequence (P23204 whole entry)

[19] = Volume of distribution at steady state in CD rat at 1 mg/kg, iv and 5 mg/kg, po; assay type: ADME, organism-based; conditions: in vivo, read-out: Vdss
[20] = target: T3, Peroxisome proliferator-activated receptor gamma; remark: listed apart in the source
Description: Displacement of radiolabeled ((5-{4-[Methyl-pyridin-2yl-amino)-ethoxy]-benzyl}-thiazolidine-2,4-dione) from human PPARgamma ligand binding domain expressed in Escherichia coli

| SMILES | EC50 [1] | EC50 [2] | EC50 [3] | EC50 [4] | EC50 [5] | EC50 [6] | IC50 [7] | IC50 [8] | AUC [9] | half-life [10] | clearance [11] | AUC [12] | Activity [13] | Activity [14] | Cmax [15] | Activity [16] | bioavailability [17] | Activity [18] | Vd [19] | IC50 [20] |
| --- | --- | --- | --- | --- | --- | --- | --- | --- | --- | --- | --- | --- | --- | --- | --- | --- | --- | --- | --- | --- |
| CCCc1nc2ccc(C(=O)NC(CC)c3ccccc3)cc2n1Cc1ccc(-c2ccccc2C(=O)O)cc1 (centres undefined) | > 10 µM | 1.69 µM | 0.9 µM | > 10 µM | > 10 µM | > 10 µM | – | – | – | – | – | – | – | – | – | – | – | – | – | – |
| Cc1c(C)n(Cc2ccc(-c3ccccc3C(=O)O)cc2)c2ccc(C(=O)NCc3ccccc3)cc12 | > 10 µM | – | – | – | – | > 10 µM | > 10 µM | > 10 µM | – | – | – | – | – | – | – | – | – | – | – | – |
| CCC(NC(=O)c1ccc2c(c1)c(C)c(C)n2Cc1ccc(-c2ccccc2C(=O)O)cc1)c1ccccc1 (centres undefined) | > 10 µM | 0.002 µM | – | > 10 µM | 5.51 µM | > 10 µM | > 10 µM | > 10 µM | 1150 ng·h/mL | 4.58 h | 40 mL/min/kg | 1330 ng·h/mL | >10% | 25% | 319 ng/mL | 49% | 52% | 79% | 17 L/kg | – |
| CCCc1cc2cc(NC(=O)C(CC)c3ccccc3)ccc2n1Cc1ccc(-c2ccccc2C(=O)O)cc1 (centres undefined) | > 10 µM | – | 0.002 µM | – | – | – | > 10 µM | > 10 µM | – | – | – | – | – | – | – | – | – | – | – | 0.26 µM |
| CCC(NC(=O)c1ccc2cc(C)n(Cc3ccc(-c4ccccc4C(=O)O)cc3)c2c1)c1ccccc1 (centres undefined) | > 10 µM | – | 0.163 µM | – | – | > 10 µM | > 10 µM | > 10 µM | – | – | – | – | – | – | – | – | – | – | – | 0.321 µM |
| CCCc1c(SC)c2ccc(NC(=O)C(CC)c3ccccc3)cc2n1Cc1ccc(-c2ccccc2C(=O)O)cc1 (centres undefined) | > 10 µM | – | 0.201 µM | – | – | – | > 10 µM | 6.95 µM | – | – | – | – | – | – | – | – | – | – | – | 0.49 µM |
